These results are taken from patent publication US20240207266A1, “METHODS FOR TREATING AND MONITORING PARKINSON'S DISEASE” (Denali Therapeutics Inc., priority 2021, published 2024).

“Also recorded” adds a separate entry of the source.

Data set [1] is described as follows: Clinical safety across the Phase 1 and Phase 1b studies (conclusions). Format: in vivo, human. An excerpt:
Based on the 2-fold increase in kinase activity associated with LRRK2 G2019S point mutations, reduction of whole-blood pS935 LRRK2 of ≥50% at trough in ≥50% of the study subjects represents a minimal pharmacodynamic target.
Safety data from Phase 1 first in human study in healthy subjects and Phase 1b study in subjects with PD are summarized below.
The most common TEAE in compound I-treated participants was headache.

Data set [2] deals with pT73 Rab10. As to the kind of experiment: pRab10 in PBMCs, MSD immunoassay (pathway engagement, Phase 1/1b). In kind it is in vivo, human. How it is done: Blood was collected into CPT-sodium heparin tubes (BD BDAM362780) and PBMCs were then isolated following the manufacturer's protocol. The PBMCs were pelleted by centrifugation at maximum speed and then resuspended in PBMC lysis buffer (1× cell lysis buffer [CST catalog #9803] with PhosSTOP phosphatase inhibitor [Roche 04906837001], complete protease inhibitor [Roche 04693159001], and Benzonase [Sigma E8263]). The lysates were held on ice for 20 minutes, followed by centrifugation at maximum speed at 4° C. for 20 minutes. Supernatants were aliquoted and stored at −80° C. for later immunoassay analysis.
(§1) Capture antibodies were biotinylated using EZ-Link™ NHS-LC-LC-Biotin (Thermo Fisher, #21343), and detection antibodies were conjugated using Sulfo-TAG NHS-Ester (MSD, R31AA-1). 96-well (or 384-well) MSD GOLD Small Spot Streptavidin plates (MSD L45SSA-1) were coated with 25 μl (or 15 μl for 384 well plates) of capture antibody diluted in Diluent 100 (MSD, R50AA-2) for 1 hour at room temperature with 700 rpm shaking (1000 rpm for 384-well). After TBST wash (3×), 25 μl samples were added each well (10 μl for 384-well) and incubated at 4° C. overnight with agitation at 700 rpm. After TBST wash (3×), 25 μl of detection antibodies (15 μl for 384-well) were added each well diluted in TBST containing 25% MSD blocker A (MSD R93AA-1), together with rabbit (Rockland Antibodies D610-1000) and mouse gamma globin fraction (D609-0100). After 1 hour incubation at room temperature at 700 rpm, followed by TBST washes (3×), 150 μl MSD read buffer (MSD R92TC. 1:1 diluted with water) is added (35 μl for 384-well), and plates are read on the MSD Sector S 600.

The nature of data set [3]: Phase 1 first-in-human study, safety and tolerability, multiple-dose cohorts (Parts B, D, E). Format: in vivo. The following applies: Part E, healthy subjects; procedural headache (250 mg BID), headache and malaise (40 mg BID).
Data set [4] addresses T1, pS935 LRRK2 (Homo sapiens, UniProt Q5S007).
T1 construct: from tissue; host or cells: human whole blood from clinical study subjects (healthy subjects, and subjects with PD in Phase 1b)
Put plainly: pS935 LRRK2 in whole blood, MSD immunoassay (target engagement, Phase 1/1b). In kind it is in vivo. The following applies: for reduction in pS935 compared with baseline: Phase 1 healthy volunteers. How it is done: Frozen human whole blood samples were thawed and directly lysed in 96-well plates (100 μl whole blood sample with 100 μl lysis buffer). Samples were spun down (2,500×g for 20 minutes at 4° C.) before MSD assay.
as §1

T1 sequence (Q5S007 whole entry): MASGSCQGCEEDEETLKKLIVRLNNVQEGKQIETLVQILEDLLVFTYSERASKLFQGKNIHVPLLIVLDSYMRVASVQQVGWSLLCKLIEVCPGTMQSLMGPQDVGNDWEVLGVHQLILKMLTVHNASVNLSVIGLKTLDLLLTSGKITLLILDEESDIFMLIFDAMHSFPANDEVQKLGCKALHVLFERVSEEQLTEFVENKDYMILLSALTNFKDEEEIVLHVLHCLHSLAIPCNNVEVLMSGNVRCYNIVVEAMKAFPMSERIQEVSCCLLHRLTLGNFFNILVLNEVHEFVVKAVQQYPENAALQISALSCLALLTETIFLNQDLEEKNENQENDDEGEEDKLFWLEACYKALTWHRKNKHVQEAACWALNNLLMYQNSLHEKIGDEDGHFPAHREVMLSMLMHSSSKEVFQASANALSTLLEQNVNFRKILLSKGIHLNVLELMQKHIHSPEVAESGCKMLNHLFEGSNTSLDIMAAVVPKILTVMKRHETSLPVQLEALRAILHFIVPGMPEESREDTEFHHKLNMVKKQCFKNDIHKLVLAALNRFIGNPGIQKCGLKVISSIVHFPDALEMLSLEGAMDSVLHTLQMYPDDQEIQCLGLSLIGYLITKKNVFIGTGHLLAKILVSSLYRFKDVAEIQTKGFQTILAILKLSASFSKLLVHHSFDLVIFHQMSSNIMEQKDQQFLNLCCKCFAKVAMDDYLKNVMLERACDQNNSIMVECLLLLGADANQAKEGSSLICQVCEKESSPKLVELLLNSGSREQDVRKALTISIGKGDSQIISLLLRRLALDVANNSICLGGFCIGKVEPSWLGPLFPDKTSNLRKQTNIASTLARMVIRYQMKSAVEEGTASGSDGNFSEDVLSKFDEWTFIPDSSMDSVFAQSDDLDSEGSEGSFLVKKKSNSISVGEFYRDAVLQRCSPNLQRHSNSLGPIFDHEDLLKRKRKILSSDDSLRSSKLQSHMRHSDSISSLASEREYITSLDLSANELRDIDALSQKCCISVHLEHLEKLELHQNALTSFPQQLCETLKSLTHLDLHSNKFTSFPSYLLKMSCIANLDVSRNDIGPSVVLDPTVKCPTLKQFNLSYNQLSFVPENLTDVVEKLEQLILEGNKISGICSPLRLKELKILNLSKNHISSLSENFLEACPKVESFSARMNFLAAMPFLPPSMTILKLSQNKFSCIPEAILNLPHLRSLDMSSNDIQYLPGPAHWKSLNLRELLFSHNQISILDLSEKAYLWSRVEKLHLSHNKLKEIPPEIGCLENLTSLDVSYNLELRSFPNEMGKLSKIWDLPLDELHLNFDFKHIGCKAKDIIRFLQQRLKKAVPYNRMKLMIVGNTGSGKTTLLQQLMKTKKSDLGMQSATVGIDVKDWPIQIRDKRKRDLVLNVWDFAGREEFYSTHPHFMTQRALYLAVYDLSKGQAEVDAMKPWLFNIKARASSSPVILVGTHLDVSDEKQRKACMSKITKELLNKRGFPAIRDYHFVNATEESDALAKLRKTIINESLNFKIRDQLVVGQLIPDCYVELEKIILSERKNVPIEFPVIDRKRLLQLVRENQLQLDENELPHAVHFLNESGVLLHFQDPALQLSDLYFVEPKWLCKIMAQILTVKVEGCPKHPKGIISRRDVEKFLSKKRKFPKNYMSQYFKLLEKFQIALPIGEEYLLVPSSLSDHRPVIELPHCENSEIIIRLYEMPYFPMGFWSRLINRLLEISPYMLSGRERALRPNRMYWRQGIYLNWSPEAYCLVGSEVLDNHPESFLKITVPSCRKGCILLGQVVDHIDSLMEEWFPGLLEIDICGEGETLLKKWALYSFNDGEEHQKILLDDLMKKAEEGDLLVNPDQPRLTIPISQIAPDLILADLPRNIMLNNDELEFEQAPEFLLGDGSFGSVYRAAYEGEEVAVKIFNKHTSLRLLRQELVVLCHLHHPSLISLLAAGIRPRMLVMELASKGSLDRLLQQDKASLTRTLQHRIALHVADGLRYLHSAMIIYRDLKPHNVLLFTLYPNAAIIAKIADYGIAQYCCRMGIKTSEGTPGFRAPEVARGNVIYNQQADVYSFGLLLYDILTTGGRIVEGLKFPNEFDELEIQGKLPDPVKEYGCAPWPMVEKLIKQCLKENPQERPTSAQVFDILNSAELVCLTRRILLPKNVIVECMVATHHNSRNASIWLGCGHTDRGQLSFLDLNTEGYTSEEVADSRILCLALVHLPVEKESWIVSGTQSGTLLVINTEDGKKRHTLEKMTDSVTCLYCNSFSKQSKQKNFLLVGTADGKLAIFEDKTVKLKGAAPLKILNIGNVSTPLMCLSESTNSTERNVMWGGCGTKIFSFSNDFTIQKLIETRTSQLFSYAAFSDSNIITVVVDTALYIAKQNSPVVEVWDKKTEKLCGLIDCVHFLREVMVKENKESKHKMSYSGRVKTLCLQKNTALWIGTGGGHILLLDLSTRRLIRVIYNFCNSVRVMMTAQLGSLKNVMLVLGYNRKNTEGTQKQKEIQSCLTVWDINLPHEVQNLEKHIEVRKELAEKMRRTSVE

Turning to `CCNc1nc(Nc2cc(C(C)(C)n3nccn3)nn2C2CC2)ncc1C(F)(F)F` [compound I, N2-(3-(2-(2H-1,2,3-triazol-2-yl)propan-2-yl)-1-cyclopropyl-1H-pyrazol-5-yl)-N4-ethyl-5-(trifluoromethyl)pyrimidine-2,4-diamine], the “most common TEAE” value in data set [1] (HVs and patients with PD) was “headache”. For the same compound, the “changes in pulmonary or renal function” value in data set [1] (HVs and patients with PD, up to 28 days) was “no clinically meaningful changes”. The tolerability result in data set [1] (broad range of doses, HVs and patients with PD, up to 28 days) is given as “generally well tolerated”. For the same compound, the “changes in potential LRRK2 on-target renal or pulmonary function” value in data set [1] (healthy subjects and subjects with PD, up to 28 days of exposure) is reported as “no apparent changes”. In data set [1] (over 200 subjects, doses up to 400 mg BID for 14 days in healthy volunteers or 225 mg for 28 days), the safety and tolerability result is “safe and generally well tolerated”. Moreover, the “pRab10 reduced by at least” value in data set [2] (PBMC, about 70 to 800 mg/day, stated as an aspect of the method) is listed as 44-97%. In data set [2] (Phase 1 HVs, trough (predose), steady state (Day 10 Cohort B, Day 28 Cohort D, Day 14 Cohort E), highest dose), the “reduction of phosphorylation of Rab10 (pRab10) in PBMCs” value is no less than 70%. Further, the “pRab10 in PBMCs” value in data set [2] (Phase 1b patients with PD, trough (predose), steady state, all doses) is “reduced”. In addition, the “subjects with severe TEAEs” value in data set [3] was “two subjects”. For the same compound, in data set [4] (HVs and patients with PD, at doses generally well tolerated), the “target and pathway engagement” value is “robust target engagement and pathway engagement; also recorded: Robust target and pathway engagement”. Moreover, the “reduction of pS935 in whole blood” value in data set [4] (Phase 1b patients with PD, trough (predose), steady state (Day 28), all dose levels studied) was “robust reduction”. Moreover, the “reduction in pS935 compared with baseline” value was no less than 80% in data set [4] (whole blood, trough (predose) at steady state (Day 10 Cohort B, Day 28 Cohort D, Day 14 Cohort E), highest dose) and no less than 50% in data set [4] (whole blood, trough (predose) at steady state, lowest clinically relevant dose). The “pS935 reduced by at least” value in data set [4] (whole blood, about 70 to 800 mg/day, stated as an aspect of the method) is 41-97%.
